Results reported in patent publication US10052320B2, “Substituted quinoxalines as FGFR kinase inhibitors” (ASTEX THERAPEUTICS LIMITED, priority 2011, dated 2018).
Where two headings read alike, the source gives them in different places.

What was measured:
FGFR4 (h) = FGFR4 (h) (Homo sapiens, UniProt P22455); assay: FGFR4 (enzymatic assay), TR-FRET; format: biochemical; conditions: read-out: FGFR 4 pIC50 (converted)
Method: In a final reaction volume of 30 μL, FGFR4 (h) (60 ng/ml) was incubated with 50 mM HEPES pH 7.5, 6 mM MnCl2, 1 mM DTT, 0.1 mM Na3VO4, 0.01% Triton-X-100, 500 nM Btn-Flt3 and 5 μM ATP in the presence of compound (1% DMSO final). […] Time-Resolved Fluorescence Resonance Energy Transfer (TR-FRET) signal (ex340 nm. Em 620 nm, em 655 nm) was measured afterwards and results are expressed in RFU (Relative Fluorescence Units).

[1] = test system: Ba/F3-FGFR3-transfected cells in the presence of 10 ng/ml murine IL3; assay: Ba/F3-FGFR3 (plus IL3) cellular proliferation counterscreen, Alamar Blue; format: cell-based; conditions: plus 10 ng/ml murine IL3, 384 well; for IC50: Mus musculus, read-out: BAF3-FGFR 3 (PLUS IL3) 384 well pIC50 (converted)
Method: Ba/F3-FGFR3 (Minus IL3 or Plus IL3) (Cellular Proliferation Assay)
(§1) In a 384 well plate, 100 nl of compound dilution in DMSO was sprayed before adding 50 μl cell culture medium (phenol red free RPMI-1640, 10% FBS, 2 mM L-Glutamine and 50 μg/ml Gentamycin) containing 20000 cells per well of Ba/F3-FGFR3-transfected cells. Cells were put in an incubator at 37° C. and 5% CO2. After 24 hours, 10 μl of Alamar Blue solution (0.5 mM K3Fe(CN)6, 0.5 mM KaFe(CN)6, 0.15 mM Resazurin and 100 mM Phosphate Buffer) was added to the wells, incubated for 4 hours at 37° C. and 5% CO2 before RFU's (Relative Fluorescence Units) (ex. 540 nm., em. 590 nm.) were measured in a flurorescence plate reader.
(§2) As a counterscreen the same experiment was performed in the presence of 10 ng/ml murine IL3.
as §1, with “a 96” for “a 384”, “plate, 180” for “plate, 100 nl of compound dilution in DMSO was sprayed before adding 50”, “containing 10000” for “containing 20000”, “Ba/F3-FGFR3-transfected cells were pipette and 20 μl of compound dilution in DMSO was added.” for “Ba/F3-FGFR3-transfected cells.”, “hours, 40” for “hours, 10”

[2] = target: Ba/F3-KDR-transfected cells (Homo sapiens, UniProt P35968); assay: Ba/F3-KDR (minus IL3) cellular proliferation assay, Alamar Blue; format: cell-based
Sequence of Ba/F3-KDR-transfected cells (P35968 whole entry, change not shown): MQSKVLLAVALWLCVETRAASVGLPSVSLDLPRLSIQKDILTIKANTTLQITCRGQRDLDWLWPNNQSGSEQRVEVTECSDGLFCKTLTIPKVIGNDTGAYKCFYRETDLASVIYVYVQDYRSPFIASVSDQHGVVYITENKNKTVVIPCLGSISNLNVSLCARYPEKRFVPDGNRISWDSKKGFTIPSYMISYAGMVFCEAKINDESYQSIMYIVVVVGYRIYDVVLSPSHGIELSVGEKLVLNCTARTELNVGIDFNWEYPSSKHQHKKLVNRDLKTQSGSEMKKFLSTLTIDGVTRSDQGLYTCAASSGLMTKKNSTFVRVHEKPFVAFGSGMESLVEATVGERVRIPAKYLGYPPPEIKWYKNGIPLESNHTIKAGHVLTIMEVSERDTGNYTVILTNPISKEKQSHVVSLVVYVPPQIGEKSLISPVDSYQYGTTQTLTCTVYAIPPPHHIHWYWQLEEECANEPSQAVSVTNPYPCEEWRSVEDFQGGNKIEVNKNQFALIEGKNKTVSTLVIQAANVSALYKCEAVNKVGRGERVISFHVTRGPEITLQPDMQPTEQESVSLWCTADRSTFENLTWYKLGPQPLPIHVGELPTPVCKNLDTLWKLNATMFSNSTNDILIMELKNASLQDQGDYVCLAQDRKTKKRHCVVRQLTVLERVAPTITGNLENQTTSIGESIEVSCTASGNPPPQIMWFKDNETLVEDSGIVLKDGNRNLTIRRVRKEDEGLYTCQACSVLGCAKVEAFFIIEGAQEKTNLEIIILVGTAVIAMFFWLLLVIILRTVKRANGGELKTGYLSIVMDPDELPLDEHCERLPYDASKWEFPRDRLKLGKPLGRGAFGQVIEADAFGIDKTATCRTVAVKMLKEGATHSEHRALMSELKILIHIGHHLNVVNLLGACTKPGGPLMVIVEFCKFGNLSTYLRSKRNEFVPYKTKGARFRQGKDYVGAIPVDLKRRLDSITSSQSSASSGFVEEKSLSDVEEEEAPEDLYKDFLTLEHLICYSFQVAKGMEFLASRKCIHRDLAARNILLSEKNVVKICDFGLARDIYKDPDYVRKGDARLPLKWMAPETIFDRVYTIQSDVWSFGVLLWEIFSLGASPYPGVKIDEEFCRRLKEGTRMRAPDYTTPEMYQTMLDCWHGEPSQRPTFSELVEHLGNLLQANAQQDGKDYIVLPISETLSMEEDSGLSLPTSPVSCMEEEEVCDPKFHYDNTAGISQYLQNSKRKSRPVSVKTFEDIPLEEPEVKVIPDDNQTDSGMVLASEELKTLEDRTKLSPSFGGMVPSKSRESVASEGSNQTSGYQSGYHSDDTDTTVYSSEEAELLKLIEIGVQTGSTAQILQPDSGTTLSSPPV
Method: (§3) Ba/F3-KDR (Minus IL3 or Plus IL3) (Cellular Proliferation Assay)
as §1, with “Ba/F3-KDR-transfected” for “Ba/F3-FGFR3-transfected”
as §2
as §1, with “a 96” for “a 384”, “plate, 180” for “plate, 100 nl of compound dilution in DMSO was sprayed before adding 50”, “containing 10000” for “containing 20000”, “of Ba/F3-KDR-transfected cells were pipette and 20 μl of compound dilution in DMSO was added.” for “of Ba/F3-FGFR3-transfected cells.”, “hours, 40” for “hours, 10”, “CO2” for “CO2 before”

[3] = test system: Ba/F3-KDR-transfected cells in the presence of 10 ng/ml murine IL3; assay: Ba/F3-KDR (plus IL3) cellular proliferation counterscreen, Alamar Blue; format: cell-based; conditions: plus 10 ng/ml murine IL3; for IC50: Mus musculus, read-out: BAF3-KDR (PLUS IL3) 384 well pIC50 (converted)
Method: as §3
[…] Cells were put in an incubator at 37° C. and 5% CO2. After 24 hours, 10 μl of Alamar Blue solution (0.5 mM K3Fe(CN)6, 0.5 mM KaFe(CN)6, 0.15 mM Resazurin and 100 mM Phosphate Buffer) was added to the wells, incubated for 4 hours at 37° C. and 5% CO2 before RFU's (Relative Fluorescence Units) (ex. 540 nm., em. 590 nm.) were measured in a flurorescence plate reader.
as §2
as §1, with “a 96” for “a 384”, “plate, 180” for “plate, 100 nl of compound dilution in DMSO was sprayed before adding 50”, “containing 10000” for “containing 20000”, “of Ba/F3-KDR-transfected cells were pipette and 20 μl of compound dilution in DMSO was added.” for “of Ba/F3-FGFR3-transfected cells.”, “hours, 40” for “hours, 10”, “CO2” for “CO2 before”

[4] = target: Ba/F3-FGFR4-transfected cells (Homo sapiens, UniProt P22455); assay: Ba/F3-FGFR4 cellular proliferation assay, Alamar Blue; format: cell-based
Sequence of Ba/F3-FGFR4-transfected cells (P22455 whole entry, change not shown): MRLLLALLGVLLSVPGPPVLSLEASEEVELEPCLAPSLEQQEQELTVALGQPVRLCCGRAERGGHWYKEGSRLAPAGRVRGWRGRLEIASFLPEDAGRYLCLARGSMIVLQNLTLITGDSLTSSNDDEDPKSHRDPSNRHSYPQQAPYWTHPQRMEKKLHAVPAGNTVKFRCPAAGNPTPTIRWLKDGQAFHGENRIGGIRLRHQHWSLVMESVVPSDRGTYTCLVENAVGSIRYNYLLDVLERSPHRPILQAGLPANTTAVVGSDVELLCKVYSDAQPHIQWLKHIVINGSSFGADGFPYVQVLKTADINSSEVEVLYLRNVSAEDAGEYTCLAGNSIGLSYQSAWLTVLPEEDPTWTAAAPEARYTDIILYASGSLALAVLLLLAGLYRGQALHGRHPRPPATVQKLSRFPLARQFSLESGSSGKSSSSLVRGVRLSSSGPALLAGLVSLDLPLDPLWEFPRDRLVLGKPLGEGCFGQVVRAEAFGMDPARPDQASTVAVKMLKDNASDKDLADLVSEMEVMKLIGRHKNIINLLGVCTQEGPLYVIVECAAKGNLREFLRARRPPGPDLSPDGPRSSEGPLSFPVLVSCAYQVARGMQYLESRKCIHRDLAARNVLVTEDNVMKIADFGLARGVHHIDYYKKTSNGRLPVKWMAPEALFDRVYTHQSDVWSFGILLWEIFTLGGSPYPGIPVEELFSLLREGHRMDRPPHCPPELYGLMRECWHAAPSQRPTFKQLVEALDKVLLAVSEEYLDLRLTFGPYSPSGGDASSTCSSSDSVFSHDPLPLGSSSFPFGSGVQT
Method: Ba/F3-FGFR4 (Cellular Proliferation Assay)
as §1, with “Ba/F3-FGFR4-transfected” for “Ba/F3-FGFR3-transfected”

Sequence of FGFR4 (h) (P22455 22-802): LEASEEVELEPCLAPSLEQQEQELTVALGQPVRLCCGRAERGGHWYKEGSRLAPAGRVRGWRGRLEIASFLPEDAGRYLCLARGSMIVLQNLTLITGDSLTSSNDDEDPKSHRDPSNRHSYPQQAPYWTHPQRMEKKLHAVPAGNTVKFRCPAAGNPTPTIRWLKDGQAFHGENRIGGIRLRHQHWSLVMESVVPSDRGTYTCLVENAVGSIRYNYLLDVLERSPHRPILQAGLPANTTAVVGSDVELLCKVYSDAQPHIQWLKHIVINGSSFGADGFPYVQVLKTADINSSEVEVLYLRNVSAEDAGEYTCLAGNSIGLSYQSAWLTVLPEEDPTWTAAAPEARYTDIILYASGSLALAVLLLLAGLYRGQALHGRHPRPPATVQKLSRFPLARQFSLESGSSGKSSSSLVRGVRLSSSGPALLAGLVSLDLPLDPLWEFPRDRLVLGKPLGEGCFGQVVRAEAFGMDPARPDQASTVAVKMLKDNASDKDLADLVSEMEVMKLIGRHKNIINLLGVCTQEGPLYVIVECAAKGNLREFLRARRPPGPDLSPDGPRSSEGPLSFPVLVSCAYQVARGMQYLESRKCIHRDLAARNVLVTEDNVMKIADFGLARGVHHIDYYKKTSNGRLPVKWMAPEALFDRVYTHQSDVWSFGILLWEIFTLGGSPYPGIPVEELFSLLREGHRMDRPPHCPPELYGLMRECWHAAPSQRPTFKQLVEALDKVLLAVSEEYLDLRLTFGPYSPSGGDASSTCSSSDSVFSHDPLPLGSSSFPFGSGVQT

IC50 (FGFR4 (h)) [nM]	BAF3-KDR (MIN IL3) 384 well pIC50 ([2]; minus IL3)	BAF3-FGFR4 pIC50 [4]	BAF3-KDR (MIN IL3) 384 well pIC50 ([2]; minus IL3, 384 well)	BAF3-FGFR4 pIC50 ([4]; 384 well)	SMILES	IC50 [1] [nM]	IC50 [3] [nM]	BAF3-FGFR 3 (PLUS IL3) 384 well pIC50 [1]	BAF3-KDR (PLUS IL3) 384 well pIC50 [3]
115	<5	5.5			COCC(O)CN(c1cc(OC)cc(OC)c1)c1ccc2ncc(-c3cccnc3)nc2c1 (single isomer, unassigned) [Compound 47]			<5	<5
107	<5	5.6			COCC(CN(c1cc(OC)cc(OC)c1)c1ccc2ncc(-c3cccnc3)nc2c1)OC(C)=O (single isomer, unassigned) [Compound 76]			<5	<5
93.3	<5	5.8			COc1cc(OC)cc(N(CCO)c2ccc3ncc(-n4cnc(CO)c4)nc3c2)c1 [Compound 38]				
45.7	5.07	6.0			COc1cc(OC)cc(N(CCCO)c2ccc3ncc(-c4ccnc(C(=O)N5CCOCC5)c4)nc3c2)c1 [Compound 43]				
617	<5	<5			COc1cc(OC)cc(N(CCO)c2ccc3ncc(N4CCC(CN)CC4)nc3c2)c1 [Compound 84]				
117	5.04	5.6			COc1cc(OC)cc(N(CCCNCCCO)c2ccc3ncc(-c4ccnc(C(=O)NCCCCN)c4)nc3c2)c1 [Compound 132]				
97.7	<5	<5			COc1cc(OC)cc(N(CCCO)c2ccc3ncc(-c4ccnc(Cl)c4)nc3c2)c1 [Compound 136]				
49	<5	6.3			COc1cc(OC)cc(N(CCNC(C)C)c2ccc3ncc(-c4ccnc(C(=O)NCCCN)c4)nc3c2)c1 [Compound 146]				

More lines, now with the values behind:

SMILES	IC50 (FGFR4 (h)) [nM]	BAF3-KDR (MIN IL3) 384 well pIC50 ([2]; minus IL3)	BAF3-FGFR4 pIC50 [4]	BAF3-KDR (MIN IL3) 384 well pIC50 ([2]; minus IL3, 384 well)	BAF3-FGFR4 pIC50 ([4]; 384 well)	IC50 [1] [nM]	IC50 [3] [nM]	BAF3-FGFR 3 (PLUS IL3) 384 well pIC50 [1]	BAF3-KDR (PLUS IL3) 384 well pIC50 [3]
COCC(O)CN(c1cc(OC)cc(OC)c1)c1ccc2ncc(-c3cccnc3)nc2c1 (single isomer, unassigned) [Compound 46]	47.9	<5	5.8			> 10000	> 10000		
COCC(CN(c1cc(OC)cc(OC)c1)c1ccc2ncc(-c3cccnc3)nc2c1)OC(C)=O (single isomer, unassigned) [Compound 52]	407	<5	5.2						
COc1cc(OC)cc(N(CC#Cc2ncccn2)c2ccc3ncc(-c4cccnc4)nc3c2)c1 [Compound 2]	195	<5	6.9						
COc1cc(OC)cc(N(CCCNCC(F)(F)F)c2ccc3ncc(-c4ccn(C)c4)nc3c2)c1 [Compound 5]		5.07	5.7						
COc1cc(OC)cc(N(CCO)c2ccc3ncc(-c4ccc(N5CCOCC5)nc4)nc3c2)c1 [Compound 19]	17.8	<5	6.1						
COc1cc(OC)cc(N(CCCNCC(F)(F)F)c2ccc3ncc(-c4cnc(OC)nc4)nc3c2)c1 [Compound 26]	479	<5	~5.1			> 10000	> 10000		
COc1cc(OC)cc(N(CCCNCC(=O)O)c2ccc3ncc(-c4ccnc(C(=O)NCCCCN)c4)nc3c2)c1 [Compound 44]	51.3	<5	<5.35						
COc1cc(OC)cc(N(CCN2CCNCC2)c2ccc3ncc(-c4ccc(N)nc4)nc3c2)c1 [Compound 59]	64.6	5.66	6.1						
COc1cc(OC)cc(N(CC2CC2)c2ccc3ncc(-c4ccc5c(c4)OCO5)nc3c2)c1 [Compound 87]	3550			<5.4	<5				
COc1cc(OC)cc(N(CCCO)c2ccc3ncc(-c4ccnc(C(=O)NCCCCCN)c4)nc3c2)c1 [Compound 130]	151	<5	5.0						
COc1cc(OC)cc(N(CCCNC(C)C)c2ccc3ncc(-c4ccnc(NC(=O)NC(C)C)c4)nc3c2)c1 [Compound 131]	21.4	5.37	6.0						
COc1cc(OC)cc(N(CCCO)c2ccc3ncc(-c4ccnc(-c5ccnc(Cl)c5)c4)nc3c2)c1 [Compound 133]	> 1000	<5	<5						
COc1cc(OC)cc(N(CCCO)c2ccc3ncc(-c4cnc(N5CCN(C)CC5)c(C)c4)nc3c2)c1 [Compound 135]	28.8	5.33	6.1						
COc1cc(OC)cc(N(CCCNC(C)C)c2ccc3ncc(-c4ccnc(NC(=O)OC(C)(C)C)c4)nc3c2)c1 [Compound 137]	42.7	5.67	6.1						
COc1cc(OC)cc(N(CCO)c2ccc3ncc(-c4ccnc(C(=O)NCCCCCN)c4)nc3c2)c1 [Compound 138]	178	<5	5.1						
COc1cc(OC)cc(N(CCCNC(C)C)c2ccc3ncc(-c4ccnc(N)c4)nc3c2)c1 [Compound 143]	9.55	5.33	6.9						
COc1cc(OC)cc(N(CCCNCC(F)(F)F)c2ccc3ncc(-c4ccnc(F)c4)nc3c2)c1 [Compound 144]	468	<5	<5						
COc1cc(OC)cc(N(CCCNCC(F)(F)F)c2ccc3ncc(-c4ccnc(C(=O)NCCCN)c4)nc3c2)c1 [Compound 148]	603	<5	<5						
COc1cc(OC)cc(N(CCCO)c2ccc3ncc(-c4cccnc4F)nc3c2)c1 [Compound 149]	166	<5	5.6						
